From US20250034186A1, “ANTIVIRAL COMPOUNDS” (priority 2020, published 2025)
pEC50: −log10 of the molar value.

Key:
NHBE cytotoxicity assay = format: cell-based; conditions: human, normal bronchial epithelial (NHBE) cells
Procedure: Normal human bronchial epithelial (NHBE) cells were purchased from Lonza (Walkersville, MD, Cat #CC-2540) and cultured in Bronchial Epithelial Growth Media (BEGM) (Lonza, Walkersville, MD, Cat #CC-3170). The cells were passaged 1-2 times per week to maintain <80% confluency per manufacturer's protocol. The NHBE cells were discarded after 5 passages in culture.
Following attachment, 3-fold serially diluted compound was added using a Hewlett-Packard D300 Digital Dispenser (Hewlett Packard, Palo Alto, CA) in triplicate. The final concentration of DMSO was normalized to 1.0%. Following compound addition, NHBE or SAEC cells were incubated at 37° C. for 5 days. The NHBE or SAEC cells were then allowed to equilibrate to 25° C. and cell viability was determined by removing 100 μL of culture medium and adding 100 μL of Cell-Titer Glo viability reagent (Promega, Madison, WI). The mixtures were incubated for 10 minutes at 25° C., and the luminescence signal was quantified on an Envision luminescence plate reader (PerkinElmer, Waltham, MA). Percent viability values were determined by normalization to 1.0% DMSO-only control wells with background luminescent signal subtracted out.

MRC5 cytotoxicity assay = format: cell-based; conditions: human, MRC5 cells
Procedure: Compounds were tested in a high-throughput 384-well assay format for cytotoxicity in MRC5 cells (human fetal lung fibroblast cell line). Cells were diluted in media (MEM (10-010-CM), 10% FBS, 1% PSG) to 16.6K cells/mL and plated at 90 uL/well into 384 well poly-D-lysine coated assay plates and placed in an incubator at 37° C. and 5% CO2. Compounds were serially diluted (1:3) in 100% DMSO in 384-well plates in quadruplicate. DMSO and 2 mM Puromycin were included as negative and positive controls respectively. 24 hours after cell plating, a 384 channel pipettor was used to transfer 0.4 uL from the compound plate to the assay plate. Assay plates were returned to the incubator. After 5 days, assay plates were washed with 80 uL/well of PBS before addition of 20 μL of Cell Titer Glo. Assay plates were read on the Envision plate reader. […] CC50 values were calculated in Accord (on-line tool) using a one-site dose-response model to generate sigmoidal curve fits.

HRV16 = HRV16 HeLa EC50; format: cell-based, human rhinovirus; conditions: for pEC50: Human rhinovirus sp., HRV16, H1-HeLa cells, 96 h, 33° C.
Procedure: H1-HeLa cells, cultured in complete DMEM medium containing 10% heat-inactivated FBS and 1% Penicillin/Streptomycin, were seeded in 96 well plates at 3000 cells/well one day prior to compound dosing and infection. The antiviral activity of each compound was measured in triplicate. Compounds were added directly to the cell cultures in serial 3-fold dilutions using the HP300 digital dispenser (Hewlett Packard, Palo Alto, CA) immediately prior to infection. The plates were transferred to BSL-2 containment and the appropriate dilution of virus stock, previously determined by titration and prepared in cell culture media, was added to test plates containing cells and serially diluted compounds. Each plate included 6 wells of infected untreated cells and 6 wells of uninfected cells that served as 0% and 100% virus inhibition control, respectively. Following the infection, test plates were incubated for 96 h in a tissue culture incubator set to 33° C./5% CO2. Following incubation, the H1-HeLa cells were removed from incubation and allowed to equilibrate to 25° C. Cell viability was determined by removing 100 μL of culture medium and adding 100 μL of Cell-Titer Glo viability reagent. The mixtures were incubated on a shaker for 10 minutes at 25° C., and the luminescence signal was quantified on an Envision luminescence plate reader.

HRVc15 replicon = assay: HRVc15 HeLa replicon EC50; format: cell-based, human rhinovirus; conditions: for pEC50: Human rhinovirus sp., HRV15, HRVc15 replicon in H1-HeLa cells, 48 hrs, luciferase, read-out: HRV15 Rep EC50
Procedure: First, HRV replicon RNA is prepared. 5 μg of DNA Template (HRVc15 or HRVc25) is linearized with 2 μL of MluI enzyme in NEB buffer-3 in a final volume of 25 μL for 3 hours at 37° C. Following incubation, linearized DNA is purified on a PCR purification column and the following in vitro transcription is performed using the following conditions: 10 μL of RiboMAX Express T7 2× buffer, 1-8 μL of linear DNA template (1 μg), 0-7 μL nuclease free water, 2 μL enzyme mix T7 express. The final volume of 20 μL is mixed and incubated at 37° C. for 30 min. Following incubation, 1 μL of RQ1 RNase free DNase is added and the mixture is incubated at 37° C. for 15 min. The resulting RNA is then purified with the MegaClear Kit (Gibco Life Technologies Cat #11835-030) and is eluted two times with 50 μL of elution buffer at 95° C. H1-HeLa cells cultured in complete RPMI 1640 media containing 10% heat-inactivated FBS and 1% Penicillin/Streptomycin are seeded into T-225 flasks at a concentration of 2E6 cells/flask a day prior to transfection and are incubated at 37° C./5% CO2 overnight. On the day of transfection, cells are trypsinized following standard cell culture protocols and are washed two times with PBS. Following washes, cells are resuspended at a concentration of 1E7 cells/mL in PBS and the suspension is stored on wet ice. Electroporation is used to introduce replicon RNA into the H1-HeLa cells. A final volume of 10 μL containing 10 μg of replicon c15 or 1 μg of c25 replicon RNA, respectively, are pipetted into a 4 mm electroporation cuvette. The H1-HeLa cell stock is mixed by gently swirling and 0.5 mL of the cell stock previously prepared is transferred into the cuvette containing the replicon RNA. The combined solution is flicked to mix. Following mixing, cells are immediately electroporated using the following settings: 900V, 25 uF, infinite resistance, 1 pulse. Cuvettes are rested on ice for 10 min. Following the 10 min incubation, add 19 mL of ambient temperature, phenol red-free and antibiotic-free RPMI 1640 containing 10% heat-inactivated FBS per electroporation. 150 μL (4E4 cells) of the electroporated cell suspension are seeded per well into a 96 well clear-bottom, white cell culture plate, and are incubated at 25° C. for 30 min. […] Replicon activity is then measured by a Renilla-Glo Luciferase Assay system. Prior to signal quantification, plates are removed from incubators and are allowed to equilibrate to 25° C. after 50 uL is removed from each well. […] Plates are then incubated for 20 min at 25° C. under gentle agitation and luciferase signal are determined with a 0.1 second detection setting using an EnVision luciferase quantification reader.

Row | Compound | CC50 at 5 days (NHBE cytotoxicity assay) | CC50 at 5 days (MRC5 cytotoxicity assay) | pEC50 (HRV16) | pEC50 (HRVc15 replicon) | times more potent than compound 7, HRV16 HeLa (HRV16; EC50 ratio vs compound 7) | times more potent compared to compound 2, HRV15 Rep (HRVc15 replicon; EC50 ratio vs compound 2) | times more potent than the compound of Formula Ib, HRV16 HeLa (HRV16; EC50 ratio vs Formula Ib) | times more potent relative to compound 1, HRV16 HeLa (HRV16; EC50 ratio vs compound 1) | times more potent relative to compound 3, HRV16 HeLa (HRV16; EC50 ratio vs compound 3) | times more potent relative to compound 4, HRV16 Hela (HRV16; EC50 ratio vs compound 4) | times more potent relative to compound 5, HRV16 HeLa (HRV16; EC50 ratio vs compound 5)
1 | CCOC(=O)[C@H](C)NP(=O)(OC[C@@]1(C#N)O[C@@H](c2ccc3c(N)ncnn23)[C@H](O)[C@@H]1O)Oc1ccccc1 (stereo partly shown) [Compound 1, reference compound] | > 50000 nM | > 44400 nM | 6.02 |  |  |  |  |  |  |  | 
2 | CCC(CC)COC(=O)[C@H](C)NP(=O)(OC[C@@]1(C#N)O[C@@H](c2ccc3c(N)ncnn23)[C@H](O)[C@@H]1O)Oc1ccccc1 (stereo partly shown) [Compound 2, reference compound] | 29100 nM | > 44400 nM | 6.79 | 7.68 |  |  |  |  |  |  | 
3 | CCC(CC)COC(=O)[C@H](C)N[P@](=O)(OC[C@@]1(C#N)O[C@@H](c2ccc3c(N)ncnn23)[C@H](O)[C@@H]1O)Oc1ccccc1 [Compound 6, 2-ethylbutyl ((S)-(((2R,3S,4R,5S)-5-(4-aminopyrrolo[2,1-f][1,2,4]triazin-7-yl)-2-cyano-3,4-dihydroxytetrahydrofuran-2-yl)methoxy)(phenoxy)phosphoryl)alaninate] | 24400 nM | > 88400 nM | 6.87 | 7.77 | 1.4 times |  |  |  |  |  | 
4 | C[C@H](N[P@](=O)(OC[C@@]1(C#N)O[C@@H](c2ccc3c(N)ncnn23)[C@H](O)[C@@H]1O)Oc1ccccc1)C(=O)OC1CCCCC1 [Formula I, cyclohexyl ((S)-(((2R,3S,4R,5S)-5-(4-aminopyrrolo[2,1-f][1,2,4]triazin-7-yl)-2-cyano-3,4-dihydroxytetrahydrofuran-2-yl)methoxy)(phenoxy)phosphoryl)-L-alaninate] | > 40100 nM | > 44400 nM | 6.64 | 8.05 |  | about 2.3 times | 2.9 times | about 4.2 times | about 6.2 times | about 4.3 times | about 13.8 times
